Data published in patent publication US20150056209A1, “PEPTIDE MIMOTOPES TO OXIDATION SPECIFIC EPITOPES” (The Regents of the University of California, priority 2012, published 2015).

Columns and labels:
[1] = tested on: LRO4; experiment: Phage ELISA, binding of phage clones to coated LRO4; set-up: species or system murine; conditions: 10^10 pfu/ml, OD 405-490 nm
Experimental: (§1) Phage ELISA was performed as described by NEB with minor modifications. Ninety six-well ELISA plates (Nunc Maxisorp) were coated with 5 μg/mL LRO4 mAb or control IgM mAb in NaHCO3 buffer (pH 8.6) at 50 μL/well ON at 4° C. Wells were washed with TBS containing 0.5% Tween 20 and then blocked with blocking buffer (TBS-T containing 1% BSA) at 200 μL/well for 1 hour at RT. After further washing, 10^10 pfu/ml of phage amplificates diluted in blocking buffer were added to the wells at 50 μL/well for 2 hours at RT. Wells were washed again, and an HRP-labeled anti-M13 mAb conjugate (no. 27-9421-01; GE Healthcare, Amersham, UK) diluted 1:1,000 in blocking buffer was added for 1 hour at RT followed by the addition of an 2,2′-azino-bis(3-ethylbenzothiazoline-6-sulphonic acid) (ABTS) (Sigma-Aldrich) substrate solution for 1 hour at RT. The binding reactivity of selected phage clones was measured at OD 405-490 nm using a BioTek Synergy 2 plate reader.

[2] = tested on: isotype control IgM; experiment: Phage ELISA, binding of phage clones to isotype control IgM; conditions: 10^10 pfu/ml, OD 405-490 nm
Experimental: Briefly, LRO4 or a control isotype anti-KLH IgM Ab (C48-6; BD Bioscience-Pharmingen, USA) were coated in buffer containing 0.1 M NaHCO3 (pH 8.5) on ELISA plates (Nunc Maxisorp, Roskilde, Denmark) overnight (ON) at 4° C. at a concentration of 100 μg/ml for the 1st, 50 μg/ml for the 2nd, and 10 μg/ml for the 3rd biopanning round. The next day, wells were washed with TBS containing 0.05% v/v Tween 20 (TBS-T) and incubated with blocking buffer containing 0.1M NaHCO3 (pH 8.6) and 5 mg/mL bovine serum albumin (BSA) for 1 hour at room temperature (RT). After further washing with TBS-T, 10 μL of a library solution (containing 2×10^12 phages) diluted in 100 μl of blocking buffer were first added to wells coated with control IgM (negative selection) and then unbound phages were transferred to wells coated with LRO4 (positive selection) and incubated at RT. The incubation time for negative or positive selection was reduced from 60 min for the 1st round to 30 min for the 2nd as well as 3rd biopanning round. Thereafter, plates were washed 5 times with TBS-T to remove unbound phages. To further elute nonspecifically bound phages, wells were incubated with 100 μL of 100 μg/ml of native LDL for 1 hour at RT. After washing up to 5 times with TBS-T, bound phages were eluted with 100 μL of elution buffer containing 0.2 M glycine-HCl (pH 2.2) and 1 mg/mL BSA. Eluates were transferred to microfuge tubes and neutralized with 15 μL of 1 M Tris-HCL (pH 9.1). The eluted phages were then titrated and amplified for the next round of panning. The 2nd and 3rd biopanning round was carried out using amplified eluates from the first and second round as input phages, respectively. To remove nonspecifically bound phages and to increase the affinity in the subsequent biopanning rounds, wells were washed 15 and 30 times with 0.1% TBS-T in the 2nd and 0.5% TBS-T in the 3rd rounds of biopanning, respectively. In the last biopanning round, LRO4-bound phages were competitively eluted with increasing concentrations (3-150 μg/mL) of MDA-LDL diluted in blocking buffer followed by elution using elution buffer.
as §1

[3] = tested on: LRO4; experiment: Competitive phage ELISA, phage binding to LRO4 in presence of MDA-LDL; set-up: species or system murine; conditions: in the presence of 50 μg/mL MDA-LDL
Experimental: For competitive phage ELISA, plates were coated with 5 μg/mL LRO4 and binding of 25 μL of phage solution at 2×10^10 pfu/mL was tested in the presence of 25 μL of MDA-LDL at 100 μg/mL. Bound phages were detected as described above and data expressed as values obtained in presence of competitor (B) divided by the values obtained in the absence of competitor (B0). A reciprocal competition assay was performed in which 50 μL of 5 μg/mL MDA-LDL was coated on microtiter wells, and binding of LRO4 that was preincubated for 30 min at RT with a solution containing either no or 1×10^10 pfu/mL phages with or without peptide was tested by chemiluminescent ELISA.
Table 2A-B. Binding characteristics of MDA-phagotopes. Sequences and binding characteristics of selected phagotopes from (A) the Ph.D.-12 and (B) the Ph.D.7C7 libraries, respectively. Individual phages were selected and amplified after the third round of biopanning, and binding to an isotype control IgM, LRO4, and LRO4 in the presence of 50 μg/mL MDA-LDL was measured by phage ELISA, as described in Methods. Numbers indicate OD values or for inhibition studies the fraction of OD values obtained in the absence and presence of soluble MDA-LDL (B/B0). Sequences indicate amino acid residues in peptide sequences that were deducted from the DNA sequence of each phagotope. “X” indicates an unidentified amino acid at this position. * for clones with identical sequence representative data of one clone are provided. (SEQ ID NOs:6-37)

[4] = molecular target: LRO4; experiment: phage ELISA, coated LRO4
[5] = molecular target: control isotype anti-KLH IgM Ab (C48-6; BD Bioscience-Pharmingen); experiment: phage ELISA, coated control IgM
[6] = molecular target: LRO4; experiment: competitive phage ELISA, coated LRO4; competitor MDA-LDL 50 µg/mL
[7] = Table 2A, Ph.D.-12 library clones
[8] = Table 2B, Ph.D.7C7 library clones

Row | Molecule | Binding of phages to LR04 [1, 7] [OD] | Binding of phages to control IgM [2, 7] [OD] | Inhibition of binding to LR04 (B/Bo) [3, 7] | Binding of phages to LR04 [1, 8] [OD] | Binding of phages to control IgM [2, 8] [OD] | Inhibition of binding to LR04 (B/Bo) [3, 8] | other results
1 | ADPFSPTNRIPL [M7] | 1.37 | 0.03 | 0.10 | – | – | – | –
2 | ASISNLTLSRFM [M15] | 1.34 | 0.04 | 0.15 | – | – | – | –
3 | DWAPHFT [Cb2] | – | – | – | 1.0 | 0.2 | 0.03 | –
4 | ESWNTNSWAMYFG [M2] | 1.17 | 0.03 | 0.20 | – | – | – | –
5 | ESWTNSWAHYFG [A36, B41, M35] | 1.16 | 0.03 | 0.14 | – | – | – | –
6 | EVMNNWTLASIM [M30] | 1.04 | 0.03 | 0.06 | – | – | – | –
7 | GWGNKTPSQDVH [A39] | 1.19 | 0.05 | 0.19 | – | – | – | –
8 | HQLSNKDEQTPQ [A33] | 0.63 | 0.05 | 0.14 | – | – | – | –
9 | HRISNYAMELHS [G4] | 1.45 | 0.04 | 0.10 | – | – | – | –
10 | HRLTNSEQAALP [M3, M5] | 1.56 | 0.03 | 0.10 | – | – | – | –
11 | HRMTNAMHHFMG [A38] | 0.64 | 0.21 | 0.10 | – | – | – | –
12 | HRMTNNAMDVFM [M6, G10] | 1.56 | 0.03 | 0.20 | – | – | – | –
13 | HSLSNIQMATLA [M10, G8] | 1.16 | 0.03 | 0.10 | – | – | – | –
14 | HSLTNTQMTQLS [M31] | 1.35 | 0.03 | 0.40 | – | – | – | –
15 | HSWSNYWGHQHA [A32] | 0.98 | 0.02 | 0.18 | – | – | – | –
16 | KNSXQPL [Ca4] | – | – | – | 0.9 | 0.1 | 0.13 | –
17 | NNQNMPL [Cb9] | – | – | – | 0.7 | 0.01 | 0.02 | –
18 | NNRNMPL [Ca59, Cb1] | – | – | – | 0.8 | 0.1 | 0.06 | –

Row | Molecule | Binding of phages to LR04 [1, 7] [OD] | Binding of phages to control IgM [2, 7] [OD] | Inhibition of binding to LR04 (B/Bo) [3, 7] | Binding of phages to LR04 [1, 8] [OD] | Binding of phages to control IgM [2, 8] [OD] | Inhibition of binding to LR04 (B/Bo) [3, 8] | other results
19 | NNSHMPL [Ca9, Cb3, Ca8, Ca10] | – | – | – | 0.9 | 0.2 | 0.04 | –
20 | NNSKMRL [Ca2] | – | – | – | 0.8 | 0.2 | 0.12 | –
21 | NNSNMPL [Cb10] | – | – | – | 0.6 | 0.2 | 0.02 | –
22 | NNSXMPL [Ca6] | – | – | – | 0.7 | 0.0 | 0.04 | –
23 | NNWKMPL [Cb4] | – | – | – | 0.6 | 0.1 | 0.02 | –
24 | NNWNMPL [Ca1, Ca7] | – | – | – | 0.8 | 0.1 | 0.04 | –
25 | NNYNMPL [Cb589] | – | – | – | 0.8 | 0.1 | 0.03 | –
26 | NSRTNNSQWTFQ [A34] | 0.82 | 0.11 | 0.11 | – | – | – | –
27 | NSWTNASLSTFH [A40] | 0.89 | 0.04 | 0.10 | – | – | – | –
28 | QNMNNWTLASIM [A31] | 0.85 | 0.08 | 0.25 | – | – | – | –
29 | QNSHMPL [Ca3] | – | – | – | 0.5 | 0.1 | 0.04 | –
30 | QSYTNDDVLRIS [M19] | 1.67 | 0.03 | 0.25 | – | – | – | –
31 | TAVTNSMMERLW [M8] | 1.57 | 0.04 | 0.20 | – | – | – | –
32 | GWGNKTPSQDVHGGGS (peptide, not shown: large carriers) [phage clone A39] | – | – | – | – | – | – | OD (binding of phages to LR04) [4]: 1.19 OD; OD (binding of phages to control IgM) [5]: 0.05 OD; B/Bo (inhibition of binding to LR04) [6]: 0.19 B/Bo
33 | DYTNSVSMRYLSGGGS (peptide, not shown: large carriers) [phage clone M36] | – | – | – | – | – | – | OD (binding of phages to LR04) [4]: 1.47 OD; OD (binding of phages to control IgM) [5]: 0.01 OD; B/Bo (inhibition of binding to LR04) [6]: 0.07 B/Bo
34 | HQLSNKDEQTPQGGGS (peptide, not shown: large carriers) [phage clone A33] | – | – | – | – | – | – | OD (binding of phages to LR04) [4]: 0.63 OD; OD (binding of phages to control IgM) [5]: 0.05 OD; B/Bo (inhibition of binding to LR04) [6]: 0.14 B/Bo
35 | ADPFSPTNRIPLGGGS (peptide, not shown: large carriers) [phage clone M7] | – | – | – | – | – | – | OD (binding of phages to LR04) [4]: 1.37 OD; OD (binding of phages to control IgM) [5]: 0.03 OD; B/Bo (inhibition of binding to LR04) [6]: 0.1 B/Bo
